Reference: patent US20060100431A1, “Biologically active compounds” (Amura Therapeutics Limited, priority 2002, published 2006)

What was measured:
Assay type in all cases: biochemical
CPB2.8ΔCTE = molecular target: T1, CPB2.8ΔCTE (Leishmania mexicana, UniProt P36400); experiment: Leishmania mexicana cysteine protease B (CPB) peptidase activity assay (Ki); conditions: Ki, inhibitors of Leismania mexicana CPB protease
T1 construct: Wild-type recombinant CPB without the C-terminal extention (i.e. CPB2.8ΔCTE); Dr. Jeremy Mottram (Wellcome Centre for Molecular Parasitology, University of Glasgow)
Outline: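 Apparent Ki was derived by regression of activity against inhibitor concentration, assuming pure-competitive reversible binding. Reaction: 0.25 nM CPB lacking the C-terminal extension, pH 5.5 acetate buffer (1 mM EDTA, 200 mM NaCl, 10 mM DTT), 25 °C, followed by continuous substrate fluorescence.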

Wild-type cruzipain = Wild-type cruzipain (Trypanosoma cruzi, UniProt P25779); experiment: Trypanosoma cruzi cruzipain peptidase activity assay (Ki); conditions: read-out: Ki, inhibitors of cruzain and cruzipains
Outline: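 Native cruzipain from T. cruzi Dm28 epimastigotes, 2.5 nM, in 100 mM sodium phosphate pH 6.75 with 1 mM EDTA and 10 mM L-cysteine, 25 °C, DMSO <1%. Rates taken from continuous fluorogenic substrate read; Ki by regression assuming reversible pure-competitive inhibition.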

human cathepsin L = molecular target: T2, human cathepsin L (Homo sapiens, UniProt P07711); experiment: Cathepsin L peptidase activity assay (Ki); conditions: read-out: Ki, inhibitors of cathepsin L
T2 construct: purchased CN Biosciences
Method: Unless otherwise stated, all general chemicals and biochemicals were purchased from either the Sigma Chemical Company, Poole, Dorset, U.K or from Fisher Scientific UK, Loughborough, Leicestershire, U.K. Absorbance assays were carried out in flat-bottomed 96-well plates (Spectra; Greiner Bio-One Ltd., Stonehouse, Gloucestershire, U.K.) using a SpectraMax PLUS384 plate reader (Molecular Devices, Crawley, U.K.). Fluorescence high throughput assays were carried out in either 384-well microtitre plates (Corning Costar 3705 plates, Fisher Scientific) or 96-well ‘U’ bottomed Microfluor W1 microtitre plates (Thermo Labsystems, Ashford, Middlesex, U.K.). Fluorescence assays were monitored using a SpectraMax Gemini fluorescence plate reader (Molecular Devices). For substrates employing either a 7-amino-4-methylcoumarin (AMC) or a 7-amino-4-trifluoromethylcoumarin (AFC) fluorophore, assays were monitored at an excitation wavelength of 365 nm and an emission wavelength of 450 nm and the fluorescence plate reader calibrated with AMC. For substrates employing a 3-amino-benzoyl (Abz) fluorophore, assays were monitored at an excitation wavelength of 310 nm and an emission wavelength of 445 nm; the fluorescence plate reader calibrated with 3-amino-benzamide (Fluka). Unless otherwise indicated, all the peptidase substrates were purchased from Bachem UK, St Helens, Merseyside, UK. Substrates utilizing fluorescence resonance energy transfer methodology (i.e. FRET-based substrates) were synthesized at Incenta Limited using published methods (Atherton & Sheppard, Solid Phase Peptide Synthesis, IRL Press, Oxford, U.K, 1989) and employed Abz (2-aminobenzoyl) as the fluorescence donor and 3-nitro-tyrosine [Tyr(NO2)] as the fluorescence quencher (Meldal, M. and Breddam, K., Anal. Biochem, 195, 141-147, 1991). Hydroxyethylpiperazine ethanesulfonate (HEPES), tris-hydroxylmethyl aminomethane (tris) base, bis-tris-propane and all the biological detergents (e.g. CHAPS, zwittergents, etc.) were purchased from CN Biosciences UK, Beeston, Nottinghamshire, U.K. Glycerol was purchased from Amersham Pharmacia Biotech, Little Chalfont, Buckinghamshire, U.K. Stock solutions of substrate or inhibitor were made up to 10 mM in 100% dimethylsulfoxide (DMSO) (Rathburns, Glasgow, U.K.) and diluted as appropriately required. In all cases the DMSO concentration in the assays was maintained at less than 1% (vol./vol.).
Assay protocols were based on literature precedent (Table 4; Barrett, A. J., Rawlings, N. D. and Woessner, J. F., 1998, Handbook of Proteolytic Enzymes, Academic Press, London and references therein) and modified as required to suit local assay protocols. Enzyme was added as required to initiate the reaction and the activity, as judged by the change in fluorescence upon conversion of substrate to product, was monitored over time. All assays were carried out at 25±1° C.
Bovine cathepsin S, human cathepsin L, human cathepsin H and human cathepsin B were obtained from CN Biosciences. Recombinant human cathepsin S, human cathepsin K and human cathepsin X were obtained from Dr. Boris Turk (Josef Stefan Institute, Ljubljana, Slovenia). Unless otherwise stated, all peptidase activity assays were carried out in 10 mM bis-tris-propane (BTP), pH 6.5 containing 1 mM EDTA, 5 mM 2-mercaptoethanol and 1 mM CaCl2. Human cathepsin H activity assays were carried out in 10 mM BTP pH 6.5, 142 mM NaCl2, 1 mM CaCl2, 1 mM EDTA, 1 mM DTT, 0.035 mM Zwittergent 3-16. Human cathepsin K assays were carried out in 100 mM sodium acetate; pH 5.5 containing 20 mM L-cysteine and 1 mM EDTA (Bossard, M. J., et. al., J. Biol. Chem., 21, 12517-12524, 1996). Human cathepsin X assays were carried out in 100 mM sodium acetate; pH 5.5 containing 20 mM L-cysteine; 0.05% (w/v) Brij 35 and 1 mM EDTA (Santamaria, I., et. al., J. Biol. Chem., 273, 16816-16823, 1998; Klemencic, J, et al., Eur. J. Biochem., 267, 5404-5412, 2000). […]

T1 sequence (P36400 126-343, stated change not applied): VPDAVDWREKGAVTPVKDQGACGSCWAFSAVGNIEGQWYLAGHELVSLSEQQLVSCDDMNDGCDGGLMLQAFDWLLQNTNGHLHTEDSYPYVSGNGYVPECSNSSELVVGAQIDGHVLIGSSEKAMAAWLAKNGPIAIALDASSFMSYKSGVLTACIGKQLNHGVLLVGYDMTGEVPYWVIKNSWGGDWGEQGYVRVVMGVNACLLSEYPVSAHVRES
Sequence of Wild-type cruzipain (P25779 whole entry): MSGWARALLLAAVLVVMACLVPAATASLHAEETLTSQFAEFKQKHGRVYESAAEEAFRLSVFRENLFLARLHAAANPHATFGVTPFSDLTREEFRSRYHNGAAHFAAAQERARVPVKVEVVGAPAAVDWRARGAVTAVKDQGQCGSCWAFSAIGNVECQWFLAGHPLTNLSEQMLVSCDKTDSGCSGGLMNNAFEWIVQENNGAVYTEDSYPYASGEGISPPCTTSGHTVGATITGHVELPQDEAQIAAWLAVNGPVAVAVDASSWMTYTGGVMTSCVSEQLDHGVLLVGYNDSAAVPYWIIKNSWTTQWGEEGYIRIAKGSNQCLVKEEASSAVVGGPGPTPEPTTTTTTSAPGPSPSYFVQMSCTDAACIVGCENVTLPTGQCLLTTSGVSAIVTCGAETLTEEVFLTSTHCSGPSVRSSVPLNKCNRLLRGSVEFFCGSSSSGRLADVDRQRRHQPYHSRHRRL
T2 sequence (P07711 114-333): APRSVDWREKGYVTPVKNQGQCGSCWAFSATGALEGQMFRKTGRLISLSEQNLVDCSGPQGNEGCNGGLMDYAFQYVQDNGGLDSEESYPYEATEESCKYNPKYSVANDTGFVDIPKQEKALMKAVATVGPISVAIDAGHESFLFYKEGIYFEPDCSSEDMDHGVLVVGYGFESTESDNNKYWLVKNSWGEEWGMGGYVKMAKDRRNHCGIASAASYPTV

Row | SMILES | Ki (CPB2.8ΔCTE) | Ki (Wild-type cruzipain) | Ki (human cathepsin L)
1 | CC(C)C[C@H](NC(=O)c1ccc(N(C)C)cc1)C(=O)N1CC[C@@H]2[C@H]1C(=O)CN2C(=O)[C@@H](N)[C@@H](C)O [Example 207, (3aR,6aS)-N-{(1S)-1-[4-((2S,3R)-2-Amino-3-hydroxy-butyryl)-6-oxo-hexahydro-pyrrolo[3,2-b]pyrrole-1-carbonyl]-3-methyl-butyl}-4-dimethylamino-benzamide] | < 5 µM | < 5 µM | –
2 | CC(C)C[C@H](NC(=O)c1ccc(N(C)C)cc1)C(=O)N1CC[C@@H]2[C@H]1C(=O)CN2C(=O)[C@@H](N)[C@H](C)O [Example 208, (3aR,6aS)-N-{(1S)-1-[4-((2S,3S)-2-Amino-3-hydroxy-butyryl)-6-oxo-hexahydro-pyrrolo[3,2-b]pyrrole-1-carbonyl]-3-methyl-butyl}-4-dimethylamino-benzamide] | < 5 µM | < 5 µM | –
3 | CC[C@H](C)[C@H](N)C(=O)N1CC(=O)[C@@H]2[C@H]1CCN2C(=O)[C@H](CC(C)C)NC(=O)c1ccc(N(C)C)cc1 [Example 209, (3aR,6aS)-N-{(1S)-1-[4-((2S,3S)-2-Amino-3-methyl-pentanoyl)-6-oxo-hexahydro-pyrrolo[3,2-b]pyrrole-1-carbonyl]-3-methyl-butyl}-4-dimethylamino-benzamide] | < 5 µM | < 5 µM | –
4 | CC(C)C[C@H](NC(=O)c1ccc(N(C)C)cc1)C(=O)N1CC[C@@H]2[C@H]1C(=O)CN2C(=O)[C@@H](N)CC(C)(C)C [Example 212, (3aR,6aS)-N-{(1S)-1-[4-((2S)-2-Amino-4,4-dimethyl-pentanoyl)-6-oxo-hexahydro-pyrrolo[3,2-b]pyrrole-1-carbonyl]-3-methyl-butyl}-4-dimethylamino-benzamide] | < 5 µM | < 5 µM | –
5 | CC(=O)N[C@@H](CCC(C)C)C(=O)N1CC(=O)[C@@H]2[C@H]1CCN2C(=O)[C@H](CC(C)C)NC(=O)c1ccc(N(C)C)cc1 [Example 214, (3aR,6aS)-N-{(1S)-1-[4-((2S)-2-Acetylamino-5-methyl-hexanoyl)-6-oxo-hexahydro-pyrrolo[3,2-b]pyrrole-1-carbonyl]-3-methyl-butyl}-4-dimethylamino-benzamide] | < 5 µM | < 5 µM | –
6 | CN[C@@H](CC(C)C)C(=O)N1CC(=O)[C@@H]2[C@H]1CCN2C(=O)[C@H](CC(C)C)NC(=O)c1ccc(N(C)C)cc1 [Example 220, (3aR,6aS)-4-Dimethylamino-N-{(1S)-3-methyl-1-[4-((2S)-4-methyl-2-methylamino-pentanoyl)-6-oxo-hexahydro-pyrrolo[3,2-b]pyrrole-1-carbonyl]-butyl}-benzamide] | < 5 µM | < 5 µM | –
7 | CC(C)C[C@H](NC(=O)c1ccc(N(C)C)cc1)C(=O)N1CC[C@@H]2[C@H]1C(=O)CN2C(=O)[C@@H](O)CC(C)C [Example 233, (3aR,6aS)-4-Dimethylamino-N-{(1S)-1-[4-((2S)2-hydroxy-4 methyl-pentanoyl)-6-oxo-hexahydro-pyrrolo[3,2-b]pyrrole-1-carbonyl]-3-methyl-butyl}-benzamide] | < 5 µM | < 5 µM | –
8 | CC(C)C[C@H](NC(=O)c1ccc(N(C)C)cc1)C(=O)N1CC[C@@H]2[C@H]1C(=O)CN2C(=O)N1CCCC1 [Example 235, (3aR,6aS)-4-Dimethylamino-N-{(1S)-3-methyl-1-[6-oxo-4-(pyrrolidine-1-carbonyl)-hexahydro-pyrrolo[3,2-b]pyrrole-1-carbonyl]-butyl}-benzamide] | < 5 µM | < 5 µM | –
9 | CC(C)C[C@H](NC(=O)c1ccc(N(C)C)cc1)C(=O)N1OC[C@@H]2[C@H]1C(=O)CN2C(=O)c1ccccc1 [Example 248, (3aS,6aS)-N-[(1S)-1-(4-Benzoyl-6-oxo-hexahydro-2-oxa-1,4-diaza-pentalene-1-carbonyl)-3-methyl-butyl]-4-dimethylamino-benzamide] | < 5 µM | < 5 µM | –
10 | Nc1ccc(C(=O)N2CC(=O)[C@@H]3[C@H]2CCN3C(=O)[C@H](CSCc2ccccc2)NC(=O)c2ccsc2)cc1 [Example 268, (3aR,6aS)-Thiophene-3-carboxylic acid {(1R)-2-(4-(4-amino-benzoyl)-6-oxo-hexahydro-pyrrolo[3,2-b]pyrrol-1-yl]-1-benzylsulfanylmethyl-2-oxo-ethyl}-amide] | – | – | < 5 µM
11 | O=C(N[C@@H](CC1CCCCC1)C(=O)N1CC[C@@H]2[C@H]1C(=O)CN2C(=O)c1ccccc1)C(c1ccccc1)c1ccccc1 [Example 270, (3aR,6aS)-N-[(1S)-2-(4-Benzoyl-6-oxo-hexahydro-pyrrolo[3,2-b]pyrrol-1-yl)-1-cyclohexylmethyl-2-oxo-ethyl]-2,2-diphenyl-acetamide] | – | – | < 5 µM
12 | NCc1ccc(C(=O)N[C@@H](Cc2ccc(O)cc2)C(=O)N2CC[C@@H]3[C@H]2C(=O)CN3C(=O)c2ccccc2)cc1 [Example 318] | < 5 µM | < 5 µM | –
13 | NCc1cccc(C(=O)N[C@@H](Cc2ccc(O)cc2)C(=O)N2CC[C@@H]3[C@H]2C(=O)CN3C(=O)c2ccccc2)c1 [Example 319, (3aR,6aS)-3-Aminomethyl-N-[(1S)-2-(4-benzoyl-6-oxo-hexahydro-pyrrolo[3,2-b]pyrrole-1-yl)-1-(4-hydroxy-benzyl)-2-oxo-ethyl]-benzamide] | < 5 µM | < 5 µM | –
14 | NCc1cccc(C(=O)N[C@@H](Cc2ccc(O)cc2)C(=O)N2CC[C@@H]3[C@H]2C(=O)CN3C(=O)c2csc3ccccc23)c1 [Example 331, (3aR,6aS)-3-Aminomethyl-N-[(1S)-2-[4-(benzo[b]thiophene-3-carbonyl)-6-oxo-hexahydro-pyrrolo[3,2-b]pyrrole-1-yl]-1-(4-hydroxy-benzyl)-2-oxo-ethyl]-benzamide] | < 5 µM | < 5 µM | –
15 | CS(=O)(=O)c1ccccc1C(=O)N1CC(=O)[C@@H]2[C@H]1CCN2C(=O)[C@H](Cc1ccc(O)cc1)NC(=O)c1cccc(CN)c1 [Example 332, (3aR,6aS)-3-Aminomethyl-N-{(1S)-1-(4-hydroxy-benzyl)-2-[4-(2-methanesulfonyl-benzoyl)-6-oxo-hexahydro-pyrrolo[3,2-b]pyrrole-1-yl]-2-oxo-ethyl}-benzamide] | < 5 µM | < 5 µM | –
16 | CC(=O)N[C@@H](CC(C)C)C(=O)N1CC(=O)[C@@H]2[C@H]1CCN2C(=O)[C@H](Cc1ccc(O)cc1)NC(=O)c1cccc(Br)c1 [Example 345, (3aR,6aS)-N-[(1S)-2-[4-((2S)-2-Acetylamino-4-methyl-pentanoyl)-6-oxo-hexahydro-pyrrolo[3,2-b]pyrrol-1-yl]-1-(4-hydroxy-benzyl)-2-oxo-ethyl]-3-bromo-benzamide] | < 5 µM | < 5 µM | –
